Reference: patent publication US20100137419A1, “ANTI-CANCER AGENT” (WAN STATION CO., LTD., priority 2006, published 2010)

Columns and labels:
[1] = system: mouse malignant melanoma cell line (B16); experiment: Examination of anti-cancer action 2 (with electroporation), cell survival rate with Tetra Color One; type: cell-based; details: DMSO 0.1%
Method: (§1) Subsequently, the cell line contained in each of the samples A0 to A5 was cultured in a CO2 incubator for 24 hours. The temperature in the CO2 incubator was set at 37.0° C., and the concentration of CO2 was set at 5.0%. Thereafter, 10 μl of a cell proliferation test reagent (manufactured by Seikagaku Corp.; product name: Tetra Color One) was added to each sample, and they were reacted in a CO2 incubator for 2 hours. Thereafter, the absorbance at a wavelength of 450 nm (control wavelength: 600 nm) was measured using a microplate reader (manufactured by Bio-Rad Laboratories, Inc.), so as to measure the survival rate of the cell line. The survival rate was measured at time points of 24, 48, and 72 hours after the reaction with the cell proliferation test reagent.
Thereafter, a DC pulse of 30 V was applied to the electrodes of each cuvette 10 times, so as to perform an electroporation operation.
Subsequently, the cell line contained in the samples D0 to D2 were cultured under the same conditions as those described in the “determination of solvent concentration” above, and the cell proliferation test reagent was reacted therewith. Then, the survival rate of the cells was measured at 0, 24, 48, and 72 hours after the reaction.

[2] = system: mouse malignant melanoma cell line (B16); experiment: Examination of anti-cancer action 1 (without electroporation), cell survival rate with Tetra Color One; type: cell-based; details: 10 and 100 nM, DMSO 0.1%, without electroporation, 0, 24, 48, 72 hours (FIG. 3)
Method: as §1
Subsequently, the cell line contained in the samples C0 to C2 were cultured under the same conditions as those described in the “determination of solvent concentration” above, and the cell proliferation test reagent was reacted therewith. Then, the survival rate of the cells was measured at 0, 24, 48, and 72 hours after the reaction.

[3] = heat stability of the rotaxane compound; type: physicochemical

heat stability [3]: relatively heat-stable
Substance: [2][bis (2-(3,5-dimethylphenylcarbonyloxy)ethyl) ammonium trifluoromethanesulfonate]-[dibenzo-24-crown-8] rotaxane
survival rate / proliferation of cancer cells ([1]; 10 and 100 nM, electroporation 30 V DC pulse 10 times, 0, 24, 48, 72 hours (FIG. 4)): suppress the proliferation of cancer cells became significant
survival rate / number of cancer cells over time ([1]; sample D2: 100 nM, electroporation 30 V, 0-72 hours (FIG. 4)): cancer cells were reduced over time
survival rate / proliferation of cancer cells [2]: has an effect of retarding the proliferation of cancer cells
